Among the data in ChEMBL document CHEMBL1134109, “Biological evaluation of hepatitis C virus helicase inhibitors” (Bioorg Med Chem Lett, 2001) are inhibition values, retold here.

The target of this assay is NS3 (Hepatitis C virus) (UniProt A3EZJ3). Kind of assay: Inhibitory activity against hepatitis C virus helicase at 25 ug/mL. The following applies: Hepacivirus hominis.
Sequence of NS3 (Hepatitis C virus) (A3EZJ3 as listed by the source): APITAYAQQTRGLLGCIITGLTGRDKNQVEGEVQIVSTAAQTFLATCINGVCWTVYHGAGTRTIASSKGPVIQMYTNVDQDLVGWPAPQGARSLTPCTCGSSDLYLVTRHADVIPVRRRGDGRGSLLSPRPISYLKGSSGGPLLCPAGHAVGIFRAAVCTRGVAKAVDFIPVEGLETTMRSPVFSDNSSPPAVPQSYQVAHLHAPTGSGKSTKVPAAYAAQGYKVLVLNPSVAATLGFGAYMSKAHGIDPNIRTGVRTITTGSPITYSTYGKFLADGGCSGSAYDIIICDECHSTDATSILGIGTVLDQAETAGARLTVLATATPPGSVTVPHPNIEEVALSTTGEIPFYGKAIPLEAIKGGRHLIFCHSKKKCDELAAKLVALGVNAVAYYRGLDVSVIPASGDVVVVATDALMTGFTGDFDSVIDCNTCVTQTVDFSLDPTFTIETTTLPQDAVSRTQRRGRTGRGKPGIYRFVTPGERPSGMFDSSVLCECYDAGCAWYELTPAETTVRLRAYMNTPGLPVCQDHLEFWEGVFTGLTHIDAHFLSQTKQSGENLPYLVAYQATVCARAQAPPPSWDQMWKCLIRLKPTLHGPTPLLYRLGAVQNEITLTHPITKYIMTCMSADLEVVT
For orientation: inhibition means the drop in the measured response relative to a control, in per cent. Compound `O=C(CCCCC(=O)Nc1nccs1)Nc1nccs1` returned an inhibition of 10%.
Compound `O=C(CCCCC(=O)Nc1nc2ccccc2[nH]1)Nc1nc2ccccc2[nH]1` gave an inhibition of 6%.
The compound `O=C(CCC(=O)Nc1nc2ccccc2[nH]1)Nc1nc2ccccc2[nH]1` yielded an inhibition of 6%.
In turn, `O=C(Nc1ccc(-c2nc3ccccc3[nH]2)cc1)c1ccc(C(=O)Nc2ccc(-c3nc4ccccc4[nH]3)cc2)cc1` yielded an inhibition of 75%.
The figure for `O=C(/C=C/C(=O)Nc1ccc(-c2nc3ccccc3[nH]2)cc1)Nc1ccc(-c2nc3ccccc3[nH]2)cc1` is 75%.
Consider `O=C(CCCCCCCC(=O)Nc1nc2ccccc2[nH]1)Nc1nc2ccccc2[nH]1`, for which the inhibition is 6%.
Compound `O=C(NCCCCCCNC(=O)Nc1ccc(-c2nc3ccccc3[nH]2)cc1)Nc1ccc(-c2nc3ccccc3[nH]2)cc1` had an inhibition of 28%.
In the case of `Cc1ccc2nc(-c3ccc(NC(=O)CCC(=O)Nc4ccc(-c5nc6ccc(C)cc6s5)cc4)cc3)sc2c1`, the inhibition came to 14%.
In the case of `O=C(CCCCCCC(=O)Nc1nc2ccccc2[nH]1)Nc1nc2ccccc2[nH]1`, the inhibition came to 6%.
`O=C(CCCCCCC(=O)Nc1ccc(-c2nc3ccccc3[nH]2)cc1)Nc1ccc(-c2nc3ccccc3[nH]2)cc1`: the inhibition came to 75%.
For `O=C(NCCCCNC(=O)Nc1ccc(-c2nc3ccccc3[nH]2)cc1)Nc1ccc(-c2nc3ccccc3[nH]2)cc1`, the inhibition stood at 20%.
The compound `O=C(CCCCC(=O)Nc1ccc(-c2nc3ccccc3[nH]2)cc1)Nc1ccc(-c2nc3ccccc3[nH]2)cc1` registered an inhibition of 75%.
